Data taken from patent publication US20220017491A1, “COMPOUND INHIBITING YAP-TEAD BINDING, AND PHARMACEUTICAL COMPOSITION FOR PREVENTING OR TREATING CANCER, COMPRISING COMPOUND AS ACTIVE INGREDIENT” (KOREA RESEARCH INSTITUTE OF CHEMICAL TECHNOLOGY, priority 2018, published 2022).

Test system: YAP-TEAD
Test: Luciferase assay of YAP-TEAD binding inhibition (TEAD luciferase reporter 8XGTIIC in HEK293T cells)
Assay type: cell-based
Conditions: 10 μM, 24 hours, luciferase normalized with β-galactosidase
Description: A Luciferase assay which allows an inhibition degree of YAP-TEAD, previously reported in Cancers 2018, 10(5), 140, was used to measure an in vitro binding inhibition rate of YAP-TEAD.
HEK293T cells were purchased from American Type Culture Collection and incubated in DMEM media containing 10% FBS, L-glutamine, and penicillin/streptomycin. The HEK293T cells were seeded in a 24 well plate at a density of 1×10^5, and coated with polyethyleneamine (10 μg/mL). These cells were transfected with 8XGTIIC-luciferase (Addgene reference 34615) which is TEAD luciferase reporter plasmid and control β-galactosidase plasmid CMV-β-Gal using a lipofectamine 2000 reagent (Life Technologies, Inc.) according to the manufacturer's manual. Thereafter, the compound of the present invention was treated at a concentration of 10 μM for 24 hours, the cells were lysed using a Reporter lysis buffer (Promega, France), luciferase activity was read with a Mithras LB940 plate reader, and then normalization was performed with β-galactosidase.

Row | Compound | Inhibition(%)
1 | COCCCN1C(=O)c2cccc3c(NC(=O)C4CCCCN4S(=O)(=O)c4ccco4)ccc1c23 (centres unmarked) [Compound 160] | 53
2 | COc1ccc(CCN2C(=O)c3cccc4c(NC(=O)[C@H]5CC[C@H](NS(=O)(=O)c6cccs6)CC5)ccc2c34)cc1 [Compound 25] | 61
3 | CS(=O)(=O)N1CCC(CCN2C(=O)c3cccc4c(NC(=O)C5CCCCN5S(=O)(=O)c5ccc6c(c5)OCCO6)ccc2c34)CC1 (centres unmarked) [Compound 134] | 62
4 | CS(=O)(=O)N1CCC(CCN2C(=O)c3cccc4c(NC(=O)C5CCCN(S(=O)(=O)c6cccs6)C5)ccc2c34)CC1 (centres unmarked) [Compound 131] | 78
5 | COCCCN1C(=O)c2cccc3c(NC(=O)C4CCCCN4S(=O)(=O)c4ccc(NC(C)=O)cc4)ccc1c23 (centres unmarked) [Compound 153] | 55
6 | COCCCN1C(=O)c2cccc3c(NC(=O)C4CCCN(S(=O)(=O)c5csc6ccccc56)C4)ccc1c23 (centres unmarked) [Compound 76] | 87
7 | O=C(Nc1ccc2c3c(cccc13)C(=O)N2CCS(=O)(=O)c1ccccc1)C1CCCCN1S(=O)(=O)c1ccc2c(c1)CCO2 (centres unmarked) [Compound 156] | 64
8 | COCCCN1C(=O)c2cccc3c(NC(=O)C4CCCCN4S(=O)(=O)c4ccccc4)ccc1c23 (centres unmarked) [Compound 138] | 79
9 | COCCCN1C(=O)c2cccc3c(NC(=O)C4CCCN(S(=O)(=O)c5cccs5)C4)ccc1c23 (centres unmarked) [Compound 28] | 81
10 | COCCCN1C(=O)c2cccc3c(NC(=O)C4CCCN(S(=O)(=O)c5c(C)n[nH]c5C)C4)ccc1c23 (centres unmarked) [Compound 36] | 54
11 | O=C(Nc1ccc2c3c(cccc13)C(=O)N2Cc1ccccc1)C1CCCN1S(=O)(=O)c1cccs1 (centres unmarked) [Compound 3] | 63
12 | O=C(Nc1ccc2c3c(cccc13)C(=O)N2CCc1ccc(Cl)cc1Cl)C1CCCCN1S(=O)(=O)c1cccs1 (centres unmarked) [Compound 26] | 100
13 | COCCCN1C(=O)c2cccc3c(NC(=O)C4CCCN(S(=O)(=O)c5ccc(-c6ccccc6)s5)C4)ccc1c23 (centres unmarked) [Compound 158] | 61
14 | COc1ccc(CCN2C(=O)c3cccc4c(NC(=O)C5CCCN(S(=O)(=O)c6cccs6)C5)ccc2c34)cc1 (centres unmarked) [Compound 24] | 61
15 | COCCCN1C(=O)c2cccc3c(NC(=O)C4CCCCN4S(=O)(=O)c4ccc(-c5ccccc5)s4)ccc1c23 (centres unmarked) [Compound 159] | 84
16 | COCCCN1C(=O)c2cccc3c(NC(=O)C4CCCN(S(=O)(=O)c5ccccc5)C4)ccc1c23 (centres unmarked) [Compound 137] | 87
17 | COCCCN1C(=O)c2cccc3c(NC(=O)C4CCCCN4S(=O)(=O)c4ccc(-c5ccccc5)cc4)ccc1c23 (centres unmarked) [Compound 152] | 77
18 | COCCCN1C(=O)c2cccc3c(NC(=O)C4CCCN(S(=O)(=O)c5ccc(-c6ccccc6)cc5)C4)ccc1c23 (centres unmarked) [Compound 151] | 57
19 | COCCCN1C(=O)c2cccc3c(NC(=O)C4CCCN(S(=O)(=O)c5ccc6c(c5)OC(F)(F)O6)C4)ccc1c23 (centres unmarked) [Compound 149] | 59

Row | Compound | Inhibition(%)
20 | COCCCN1C(=O)c2cccc3c(NC(=O)C4CCCN(S(=O)(=O)c5ccc6c(c5)OCCO6)C4)ccc1c23 (centres unmarked) [Compound 49] | 51
21 | COCCCN1C(=O)c2cccc3c(NC(=O)C4CCCN(S(=O)(=O)c5sc6ccc(Cl)cc6c5C)C4)ccc1c23 (centres unmarked) [Compound 48] | 58
22 | CS(=O)(=O)N1CCC(CCN2C(=O)c3cccc4c(NC(=O)C5CCCCN5S(=O)(=O)c5ccc6c(c5)CCO6)ccc2c34)CC1 (centres unmarked) [Compound 133] | 59
23 | COCCCN1C(=O)c2cccc3c(NC(=O)C4CCCN(S(=O)(=O)c5ccc(OCCN(C)C)c(C)c5)C4)ccc1c23 (centres unmarked) [Compound 123] | 54
24 | COCCCN1C(=O)c2cccc3c(NC(=O)C4CCCN(S(=O)(=O)c5c(C)c(C)c6c(c5C)CC(C)(C)O6)C4)ccc1c23 (centres unmarked) [Compound 50] | 63
25 | COCCCN1C(=O)c2cccc3c(NC(=O)C4CCCN(S(=O)(=O)c5cc(Cl)sc5Cl)C4)ccc1c23 (centres unmarked) [Compound 71] | 91
26 | CS(=O)(=O)N1CCC(CCN2C(=O)c3cccc4c(NC(=O)C5CCCN(S(=O)(=O)c6ccco6)C5)ccc2c34)CC1 (centres unmarked) [Compound 136] | 80
27 | COc1ccc(CCN2C(=O)c3cccc4c(NC(=O)C5CCC(NS(=O)(=O)c6cccs6)CC5)ccc2c34)cc1 (centres unmarked) [Compound 22] | 78
28 | O=C(Nc1ccc2c3c(cccc13)C(=O)N2CCc1c[nH]c2ccccc12)C1CCCCN1S(=O)(=O)c1cccs1 (centres unmarked) [Compound 13] | 50
29 | CS(=O)(=O)N1CCC(CCN2C(=O)c3cccc4c(NC(=O)C5CCCCN5S(=O)(=O)c5ccco5)ccc2c34)CC1 (centres unmarked) [Compound 139] | 98
30 | COCCCN1C(=O)c2cccc3c(NC(=O)C4CCCN(S(=O)(=O)c5ccc(F)cc5)C4)ccc1c23 (centres unmarked) [Compound 161] | 88
31 | COCCCN1C(=O)c2cccc3c(NC(=O)C4CCCCN4S(=O)(=O)c4ccc(N)cc4)ccc1c23 (centres unmarked) [Compound 145] | 53
32 | COCCCN1C(=O)c2cccc3c(NC(=O)C4CCCCN4S(=O)(=O)c4cccc(F)c4)ccc1c23 (centres unmarked) [Compound 162] | 74
33 | CS(=O)(=O)N1CCC(CCN2C(=O)c3cccc4c(NC(=O)C5CCCCN5S(=O)(=O)c5cccs5)ccc2c34)CC1 (centres unmarked) [Compound 106] | 99.2
34 | COCCCN1C(=O)c2cccc3c(NC(=O)C4CCCN(S(=O)(=O)c5ccc(-c6ccccn6)s5)C4)ccc1c23 (centres unmarked) [Compound 119] | 68
35 | COCCCN1C(=O)c2cccc3c(NC(=O)C4CCCN(S(=O)(=O)c5ccc6c7c(cccc57)C(=O)N6)C4)ccc1c23 (centres unmarked) [Compound 55] | 50
36 | COCCCN1C(=O)c2cccc3c(NC(=O)C4CCCN(S(=O)(=O)c5c(C)noc5C)C4)ccc1c23 (centres unmarked) [Compound 35] | 56
37 | O=C(Nc1ccc2c3c(cccc13)C(=O)N2CCS(=O)(=O)c1ccccc1)C1CCCN(S(=O)(=O)c2ccc3c(c2)CCO3)C1 (centres unmarked) [Compound 155] | 66

Test system: HT29 cells
Test: Proliferation assay for HT29 colorectal cancer cells (CellTiter-Glo cell viability)
Assay type: cell-based
Conditions: Homo sapiens, HT-29; HT29 colorectal cancer cell line, 72 hours, ATP detection
Description: HT-29 which is a commercially available colorectal cancer cell line was treated with trypsin-EDTA, incubated, and seeded in a 96 well plate. […] The treated cells were incubated for further 72 hours and cell viability was measured by an ATP detection method (CellTiter-Glo LuminescentCell Viability Assay, Promega).
In order to confirm the anticancer effect of the compounds according to the present invention, a proliferation assay for HT29 cells which are a colorectal cancer cell line was performed by the above method, and IC50 values as a result are listed in the following Table 4: […]

Row | IC50 [µM] | Compound
38 | 45.4 | COCCCN1C(=O)c2cccc3c(NC(=O)C4CCCCN4S(=O)(=O)c4scnc4C)ccc1c23 (centres unmarked) [Compound 81]
39 | 25.3 | CS(=O)(=O)N1CCCCC1C(=O)Nc1ccc2c3c(cccc13)C(=O)N2Cc1ccccc1 (centres unmarked) [Compound 9]
40 | 7.29 | O=C(Nc1ccc2c3c(cccc13)C(=O)N2Cc1ccccc1)C1CCCCN1S(=O)(=O)c1ccc([N+](=O)[O-])cc1 (centres unmarked) [Compound 6]
41 | 2.2 | COCCCN1C(=O)c2cccc3c(NC(=O)C4CCCCN4S(=O)(=O)c4cc([N+](=O)[O-])c(Cl)s4)ccc1c23 (centres unmarked) [Compound 38]
42 | 29.2 | COCCCN1C(=O)c2cccc3c(NC(=O)C4CCCN(S(=O)(=O)c5sc(NC(C)=O)nc5C)C4)ccc1c23 (centres unmarked) [Compound 47]
43 | 17.5 | COCCCN1C(=O)c2cccc3c(NC(=O)C4CCCN(S(=O)(=O)c5cc6c(s5)CCCC6)C4)ccc1c23 (centres unmarked) [Compound 65]
44 | 5.6 | COCCCN1C(=O)c2cccc3c(NC(=O)C4CCCN(S(=O)(=O)c5cc(Br)c(Br)s5)C4)ccc1c23 (centres unmarked) [Compound 61]
45 | 30.6 | COCCCN1C(=O)c2cccc3c(NC(=O)C4CCCCN4S(=O)(=O)c4cccc(C(F)(F)F)n4)ccc1c23 (centres unmarked) [Compound 82]
46 | 26.4 | O=C(Nc1ccc2c3c(cccc13)C(=O)N2Cc1ccncc1)C1CCCCN1S(=O)(=O)c1cccs1 (centres unmarked) [Compound 18]
47 | 7.1 | Cc1ccc(S(=O)(=O)N2CCCCC2C(=O)Nc2ccc3c4c(cccc24)C(=O)N3Cc2ccccc2)cc1 (centres unmarked) [Compound 5]
